Values of other authors in paper PMC5931096, “A Phase I study of the novel immunomodulatory agent PG545 (pixatimod) in subjects with advanced solid tumours” (British Journal of Cancer, 2018).

System: heparanase
Settings: cited from earlier work

Question: For `CC(C)CCC[C@@H](C)[C@H]1CC[C@H]2[C@@H]3CC[C@H]4C[C@@H](O[C@@H]5O[C@H](COS(=O)(=O)O)[C@@H](O[C@H]6O[C@H](COS(=O)(=O)O)[C@@H](O[C@H]7O[C@H](COS(=O)(=O)O)[C@@H](O[C@H]8O[C@H](COS(=O)(=O)O)[C@@H](OS(=O)(=O)O)[C@H](OS(=O)(=O)O)[C@H]8OS(=O)(=O)O)[C@H](OS(=O)(=O)O)[C@H]7OS(=O)(=O)O)[C@H](OS(=O)(=O)O)[C@H]6OS(=O)(=O)O)[C@H](OS(=O)(=O)O)[C@H]5OS(=O)(=O)O)CC[C@]4(C)[C@H]3CC[C@]12C` [PG545], which Anti-heparanase activity is on record?
Answer: strong anti-heparanase activity
